Data reported in the NIST ThermoML archive (doi:10.1021/je100083w).
Numbers after ± are expanded uncertainties.

Conditions: Liquid, Bellows volumetry

O [water]
Conditions	specific volume [m3/kg]
253.56 K, 298200 kPa	0.0008917 ± 7e-07
253.56 K, 325300 kPa	0.0008857 ± 7e-07
253.56 K, 349800 kPa	0.0008804 ± 7e-07
253.58 K, 223600 kPa	0.0009109 ± 7e-07
253.58 K, 223700 kPa	0.000911 ± 7e-07
253.58 K, 273300 kPa	0.0008978 ± 7e-07
253.58 K, 273600 kPa	0.0008977 ± 7e-07
253.58 K, 323500 kPa	0.000886 ± 7e-07
253.6 K, 249400 kPa	0.0009039 ± 7e-07
253.6 K, 298400 kPa	0.0008918 ± 7e-07
253.61 K, 248900 kPa	0.0009041 ± 7e-07
253.63 K, 349100 kPa	0.0008803 ± 7e-07
253.64 K, 223700 kPa	0.000911 ± 7e-07
253.64 K, 248300 kPa	0.0009041 ± 7e-07
253.65 K, 299600 kPa	0.000891 ± 7e-07
253.67 K, 349800 kPa	0.00088 ± 7e-07
253.68 K, 273300 kPa	0.0008975 ± 7e-07
253.69 K, 325300 kPa	0.0008852 ± 7e-07
253.83 K, 323300 kPa	0.0008861 ± 7e-07
253.83 K, 349500 kPa	0.0008803 ± 7e-07
253.86 K, 273400 kPa	0.0008977 ± 7e-07
253.86 K, 298200 kPa	0.0008918 ± 7e-07
253.87 K, 248600 kPa	0.0009042 ± 7e-07
253.9 K, 223600 kPa	0.000911 ± 7e-07
258.37 K, 198400 kPa	0.00092 ± 7e-07
258.37 K, 248400 kPa	0.0009059 ± 7e-07
258.38 K, 274900 kPa	0.0008992 ± 7e-07
258.4 K, 174000 kPa	0.0009274 ± 7e-07
258.41 K, 223300 kPa	0.0009127 ± 7e-07
258.45 K, 299600 kPa	0.0008933 ± 7e-07
258.46 K, 348900 kPa	0.0008821 ± 7e-07
258.52 K, 323300 kPa	0.0008877 ± 7e-07
258.52 K, 324100 kPa	0.0008879 ± 7e-07
258.53 K, 275300 kPa	0.0008991 ± 7e-07
258.54 K, 249300 kPa	0.0009057 ± 7e-07
258.54 K, 298500 kPa	0.0008935 ± 7e-07
258.55 K, 225000 kPa	0.0009123 ± 7e-07
258.58 K, 174100 kPa	0.0009275 ± 7e-07
258.58 K, 349500 kPa	0.0008815 ± 7e-07
258.59 K, 199300 kPa	0.0009197 ± 7e-07
258.59 K, 223500 kPa	0.0009124 ± 7e-07
258.6 K, 198200 kPa	0.0009199 ± 7e-07
258.6 K, 248400 kPa	0.0009053 ± 7e-07
258.6 K, 273300 kPa	0.0008992 ± 7e-07
258.6 K, 323400 kPa	0.0008873 ± 7e-07
258.6 K, 348800 kPa	0.0008828 ± 7e-07
258.61 K, 198500 kPa	0.0009196 ± 7e-07
258.61 K, 223400 kPa	0.0009121 ± 7e-07
258.61 K, 299200 kPa	0.0008928 ± 7e-07
258.64 K, 223300 kPa	0.0009126 ± 7e-07
258.64 K, 248500 kPa	0.0009056 ± 7e-07
258.65 K, 248300 kPa	0.0009047 ± 7e-07
258.65 K, 274500 kPa	0.0008977 ± 7e-07
258.65 K, 299500 kPa	0.0008914 ± 7e-07
258.66 K, 198400 kPa	0.0009199 ± 7e-07
258.67 K, 174000 kPa	0.0009274 ± 7e-07
258.68 K, 173500 kPa	0.0009277 ± 7e-07
258.68 K, 223300 kPa	0.0009118 ± 7e-07
258.7 K, 174400 kPa	0.0009274 ± 7e-07
258.75 K, 199500 kPa	0.000919 ± 7e-07
258.76 K, 173800 kPa	0.0009274 ± 7e-07
263.51 K, 299100 kPa	0.0008953 ± 7e-07
263.52 K, 350000 kPa	0.0008839 ± 7e-07
263.58 K, 298900 kPa	0.0008957 ± 7e-07
263.6 K, 249800 kPa	0.0009078 ± 7e-07
263.61 K, 248800 kPa	0.0009077 ± 7e-07
263.62 K, 149500 kPa	0.0009371 ± 7e-07
263.64 K, 198700 kPa	0.0009216 ± 7e-07
263.64 K, 248800 kPa	0.0009078 ± 7e-07
263.64 K, 298000 kPa	0.0008957 ± 7e-07
263.64 K, 349900 kPa	0.0008842 ± 7e-07
263.65 K, 198400 kPa	0.0009219 ± 7e-07
263.69 K, 149400 kPa	0.0009369 ± 7e-07
263.69 K, 198600 kPa	0.0009216 ± 7e-07
263.69 K, 349100 kPa	0.0008847 ± 7e-07
263.75 K, 149200 kPa	0.000937 ± 7e-07
268.42 K, 99500 kPa	0.0009558 ± 7e-07
268.47 K, 149200 kPa	0.0009384 ± 7e-07
268.47 K, 248700 kPa	0.0009095 ± 7e-07
268.47 K, 300200 kPa	0.000897 ± 7e-07
268.47 K, 348900 kPa	0.0008867 ± 7e-07
268.48 K, 199300 kPa	0.0009231 ± 7e-07
268.48 K, 298400 kPa	0.0008977 ± 7e-07
268.48 K, 349100 kPa	0.0008861 ± 7e-07
268.51 K, 149700 kPa	0.0009382 ± 7e-07
268.51 K, 249100 kPa	0.0009096 ± 7e-07
268.52 K, 149700 kPa	0.0009382 ± 7e-07
268.52 K, 198400 kPa	0.0009234 ± 7e-07
268.52 K, 249000 kPa	0.0009097 ± 7e-07
268.53 K, 198800 kPa	0.0009234 ± 7e-07
268.55 K, 99400 kPa	0.0009559 ± 7e-07
268.55 K, 298900 kPa	0.0008975 ± 7e-07
268.58 K, 99800 kPa	0.0009557 ± 7e-07
268.6 K, 348900 kPa	0.0008866 ± 7e-07
273.32 K, 69100 kPa	0.0009686 ± 5e-07
273.38 K, 298800 kPa	0.0008991 ± 5e-07
273.4 K, 349400 kPa	0.0008876 ± 5e-07
273.44 K, 149100 kPa	0.0009398 ± 5e-07
273.46 K, 99300 kPa	0.0009569 ± 5e-07
273.48 K, 69100 kPa	0.0009688 ± 5e-07
273.51 K, 199000 kPa	0.0009249 ± 5e-07
273.52 K, 69100 kPa	0.0009682 ± 5e-07
273.52 K, 149000 kPa	0.0009392 ± 5e-07
273.52 K, 249000 kPa	0.0009109 ± 5e-07
273.53 K, 99100 kPa	0.0009564 ± 5e-07
273.55 K, 198900 kPa	0.0009242 ± 5e-07
273.56 K, 98600 kPa	0.0009574 ± 5e-07
273.57 K, 149100 kPa	0.00094 ± 5e-07
273.57 K, 249100 kPa	0.0009117 ± 5e-07
273.63 K, 249300 kPa	0.000912 ± 5e-07
273.65 K, 298900 kPa	0.0008999 ± 5e-07
